Data: patent US20260098030A1, “NEGATIVE ALLOSTERIC MODULATORS OF METABOTROPIC GLUTAMATE RECEPTOR 2” (Vanderbilt University, priority 2022, published 2026)
Values belong to the molecule of their own block, whether it stands above or below them.

Columns and labels:
[1] = target: T1, rat mGlu2 (Rattus norvegicus, UniProt P31421); assay: mGlu GIRK cell-based thallium flux assay, rat mGlu2; settings: HEK-293 cells co-expressing rat mGlu2 and GIRK, EC80 glutamate
T1 construct: expressed in transfected cells; host or cells: HEK-293 cells stably co-expressing GIRK channels
In short: (§1)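 HEK-293 cells stably co-expressing GIRK with human mGlu3, human mGlu2 or rat mGlu2 were loaded 1 h at 25° C with Thallos dye, then given compound (30 μM to 1.5 nM final, 10-point) for 2 min 20 s before EC80 glutamate plus thallium. Baseline-corrected fluorescence slope, normalized to ECmax glutamate, fitted to 4-parameter logistic for IC50.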

[2] = target: Rat mGlu3 (UniProt P31422); assay: mGlu GIRK cell-based thallium flux assay, mGlu3; settings: HEK-293 cells co-expressing mGlu3 and GIRK, EC80 glutamate
[3] = tested on: mGlu2; settings: cited from earlier work
[4] = target: T2, human mGlu2 (Homo sapiens, UniProt Q14416); assay: mGlu GIRK cell-based thallium flux assay, human mGlu2; settings: HEK-293 cells co-expressing human mGlu2 and GIRK, EC80 glutamate
T2 construct: expressed in transfected cells; host or cells: HEK-293 cells stably co-expressing GIRK channels
In short: as §1

[5] = tested on: Helpless (H) mice; settings: cited from earlier work; for antidepressant effect in helpless mice: LY341495 acute administration, fluoxetine chronic (21 days) treatment; for activity in the tail suspension test: Helpless (H) mice
[6] = tested on: central mGlu2 and mGlu3 receptors; settings: in vivo; cited from earlier work
[7] = tested on: C57B16/J mice; settings: cited from earlier work
[8] = tested on: mice; settings: cited from earlier work
[9] = tested on: mouse; settings: normal animals; cited from earlier work
[10] = tested on: rat; settings: normal animals; cited from earlier work
[11] = tested on: Dutch APP transgenic mice; settings: cited from earlier work
[12] = tested on: social isolation-reared mice; settings: cited from earlier work
[13] = tested on: olfactory bulbectomized rats; settings: repeated administration for 14 days; cited from earlier work
[14] = treatment for 7 days; cited from earlier work
[15] = in vivo; cited from earlier work

T1 sequence (P31421 19-872): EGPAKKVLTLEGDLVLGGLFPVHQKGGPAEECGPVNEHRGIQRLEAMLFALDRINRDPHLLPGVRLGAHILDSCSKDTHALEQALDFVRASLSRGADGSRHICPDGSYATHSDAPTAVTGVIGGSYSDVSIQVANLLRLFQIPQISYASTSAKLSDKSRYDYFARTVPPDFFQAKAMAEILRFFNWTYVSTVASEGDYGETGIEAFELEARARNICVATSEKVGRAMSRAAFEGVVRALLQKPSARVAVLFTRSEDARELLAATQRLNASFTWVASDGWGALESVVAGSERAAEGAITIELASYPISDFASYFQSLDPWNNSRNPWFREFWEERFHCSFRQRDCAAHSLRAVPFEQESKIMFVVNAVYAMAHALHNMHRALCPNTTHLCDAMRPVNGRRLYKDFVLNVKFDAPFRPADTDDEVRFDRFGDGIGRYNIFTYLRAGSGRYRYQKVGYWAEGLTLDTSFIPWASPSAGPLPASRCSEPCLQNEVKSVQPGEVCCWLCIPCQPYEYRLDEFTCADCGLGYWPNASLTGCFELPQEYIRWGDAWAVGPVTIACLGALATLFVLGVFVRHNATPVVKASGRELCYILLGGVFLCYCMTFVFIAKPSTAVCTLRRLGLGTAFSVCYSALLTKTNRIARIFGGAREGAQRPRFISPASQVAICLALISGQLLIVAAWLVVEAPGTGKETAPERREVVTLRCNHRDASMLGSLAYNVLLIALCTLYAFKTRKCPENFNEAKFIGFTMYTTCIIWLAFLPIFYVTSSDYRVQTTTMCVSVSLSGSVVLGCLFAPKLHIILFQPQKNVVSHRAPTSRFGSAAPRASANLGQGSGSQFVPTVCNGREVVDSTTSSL
T2 sequence (Q14416 19-872): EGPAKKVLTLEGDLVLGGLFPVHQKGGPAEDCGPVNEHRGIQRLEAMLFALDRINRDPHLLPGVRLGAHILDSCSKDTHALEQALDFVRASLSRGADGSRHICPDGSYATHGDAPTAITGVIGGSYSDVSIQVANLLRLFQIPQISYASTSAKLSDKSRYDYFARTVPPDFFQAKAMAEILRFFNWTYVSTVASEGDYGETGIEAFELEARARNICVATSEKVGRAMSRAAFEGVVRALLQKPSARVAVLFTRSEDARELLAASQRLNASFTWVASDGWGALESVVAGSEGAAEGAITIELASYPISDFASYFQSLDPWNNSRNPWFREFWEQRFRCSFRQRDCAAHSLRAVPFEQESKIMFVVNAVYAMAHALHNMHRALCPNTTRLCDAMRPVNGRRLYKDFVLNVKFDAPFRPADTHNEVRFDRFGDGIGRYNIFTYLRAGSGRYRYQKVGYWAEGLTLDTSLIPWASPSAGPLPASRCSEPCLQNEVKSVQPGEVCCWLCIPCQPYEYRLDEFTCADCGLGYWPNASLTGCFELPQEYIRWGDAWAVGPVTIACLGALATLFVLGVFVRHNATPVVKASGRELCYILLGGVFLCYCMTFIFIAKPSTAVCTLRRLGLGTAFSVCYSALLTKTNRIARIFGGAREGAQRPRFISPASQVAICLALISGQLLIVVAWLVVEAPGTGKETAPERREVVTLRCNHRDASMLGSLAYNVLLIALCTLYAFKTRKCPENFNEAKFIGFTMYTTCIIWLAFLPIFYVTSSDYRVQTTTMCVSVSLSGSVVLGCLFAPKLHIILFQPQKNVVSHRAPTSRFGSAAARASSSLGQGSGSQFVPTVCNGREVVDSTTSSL

SMILES: CCS(=O)(=O)N(Cc1cccnc1)c1cccc(-c2ccc(C#N)cc2)c1 [LY566332]
Aβ-induced neurodegeneration [3]: amplified Aβ-induced neurodegeneration

SMILES: O=C1NCc2cc(CN3CC(O)(C(F)(F)F)C3)c(-c3ccc(F)cc3F)cc21 [Compound A12, 6-(2,4-difluorophenyl)-5-((3-hydroxy-3-(trifluoromethyl)azetidin-1-yl)methyl)isoindolin-1-one]
IC50 [1]: > 10 µM
IC50 [4]: 0.528 µM

SMILES: O=C1NCc2cc(-c3cnco3)c(-c3ccc(F)cc3)cc21 [Compound 2, 6-(4-fluorophenyl)-5-(oxazol-5-yl)isoindolin-1-one]
IC50 [1]: > 10 µM
IC50 [4]: 5.84 µM

SMILES: CNCCC(Oc1ccc(C(F)(F)F)cc1)c1ccccc1 (stereo not shown) [fluoxetine]
antidepressant effect in helpless mice [5]: full antidepressant effect

SMILES: Cc1cc(-c2cccc(C3=Nc4cc(C)c(C(F)(F)F)cc4NC(=O)C3)c2)cc(C)n1 [RO4491533]
activity in the tail suspension test [5]: active
hypolocomotor effect of mGlu2/3 agonist (LY379268) [6]: reversed the hypolocomotor effect
immobility time in the FST [7]: dose-dependently reduced immobility time

SMILES: O=C1NCc2cc(-c3ccncc3)c(-c3ccc(F)cc3)cc21 [Compound 4, 6-(4-fluorophenyl)-5-(pyridin-4-yl)isoindolin-1-one]
IC50 [1]: > 10 µM
IC50 [4]: > 10 µM

SMILES: N[C@](CC1c2ccccc2Oc2ccccc21)(C(=O)O)[C@H]1C[C@@H]1C(=O)O [LY341495]
marble-burying behavior [8]: significantly reduce marble-burying behavior
activity in the tail suspension test [5]: active
antidepressant effect in helpless mice [5]: potent antidepressant effect
Aβ-induced neurodegeneration [3]: this effect was prevented
hypolocomotor effect of mGlu2/3 agonist (LY379268) [6]: achieved the same result
antidepressant-like effects in mouse tail-suspension test [9]: Antidepressant-like effects
immobility time in the FST [7]: dose-dependently reduced immobility time
antidepressant-like effects in rat forced swim test [10]: Antidepressant-like effects

SMILES: Cn1cc2cc(-c3cc4c(cc3-c3ccc(F)cc3)C(=O)NC4)ccc2n1 [Compound 7, 6-(4-fluorophenyl)-5-(2-methyl-2H-indazol-5-yl)isoindolin-1-one]
IC50 [1]: > 10 µM
IC50 [4]: 1.56 µM

SMILES: CCCCCCCOC(=O)[C@@]1(F)[C@@H]2C[C@@H](OCc3ccc(Cl)c(Cl)c3)[C@@](N)(C(=O)O)[C@@H]21 [BCI-838]
duration of inhibition of group II mGlu receptors by brain concentration of active metabolite BCI-632 ([11]; once-daily oral dosing): 22 h
learning and memory impairment ([11]; three months of treatment, Dutch APP transgene): reversed Dutch APP transgene-associated learning and memory impairment
anxiolytic effects ([11]; three months of treatment): provided anxiolytic effects
levels of monomeric and oAβ peptides in the hippocampus and cortex ([11]; three months of treatment, two AD mouse models): decreased the levels of monomeric and oAβ peptides
hippocampal progenitor cell proliferation ([11]; wild-type and Alzheimer's diseased mice, 3 months): stimulated hippocampal progenitor cell proliferation

SMILES: Cc1c(-c2cc3c(cc2-c2ccc(F)cc2)C(=O)NC3)ccc2[nH]ncc12 [Compound 9, 6-(4-fluorophenyl)-5-(4-methyl-1H-indazol-5-yl)isoindolin-1-one]
IC50 [1]: 1.28 µM
IC50 [2]: 1.98 µM

SMILES: Cc1ccc(-c2cc3c(cc2-c2ccc(F)cc2)C(=O)NC3)nc1 [Compound 52, 6-(4-fluorophenyl)-5-(5-methylpyridin-2-yl)isoindolin-1-one]
IC50 [1]: 0.953 µM
IC50 [2]: > 10 µM

SMILES: O=C1NCc2cc(-c3cnc4[nH]ccc4c3)c(-c3ccc(F)cc3F)cc21 [Compound 87, 6-(2,4-difluorophenyl)-5-(1H-pyrrolo[2,3-b]pyridin-5-yl)isoindolin-1-one]
IC50 [1]: 0.618 µM
IC50 [2]: > 10 µM

SMILES: O=C1NCc2cc(C3CCOCC3)c(-c3ccc(F)cc3)cc21 [Compound 64, 6-(4-fluorophenyl)-5-(tetrahydro-2H-pyran-4-yl)isoindolin-1-one]
IC50 [1]: 0.762 µM
IC50 [2]: > 10 µM

SMILES: N[C@]1(C(=O)O)[C@H]2[C@@H](C[C@H]1OCc1ccc(Cl)c(Cl)c1)[C@]2(F)C(=O)O [MGS0039]
marble-burying behavior [8]: reduced marble-burying behavior in a significant and dose dependent manner
spontaneous locomotor activity [8]: no significant change
immobility in the FST [12]: reversed the increased immobility
hyperactivity in the open field test [13]: attenuated the hyperactivity
learning deficit in the passive avoidance test [13]: attenuated the learning deficit
antidepressant-like effects in mouse tail-suspension test [9]: Antidepressant-like effects
number of escape failures, learned helplessness test [14]: significantly reduced the number of escape failures
antidepressant-like effects in rat forced swim test [10]: Antidepressant-like effects
freezing behavior, CFS model [15]: significantly decreased freezing behavior

Next, values leading:

IC50 [1]: 0.953 µM
IC50 [2]: > 10 µM
SMILES: O=C1NCc2cc(-c3ccc4ocnc4c3)c(-c3ccc(F)cc3F)cc21 [Compound 24, 5-(benzo[d]oxazol-5-yl)-6-(2,4-difluorophenyl)isoindolin-1-one]

IC50 [1]: 0.477 µM
IC50 [2]: > 10 µM
SMILES: N#Cc1cccc(-c2cc3c(cc2-c2ccc(F)cc2F)C(=O)NC3)c1F [Compound 94, 3-(6-(2,4-difluorophenyl)-1-oxoisoindolin-5-yl)-2-fluorobenzonitrile]

IC50 [1]: 0.659 µM
IC50 [2]: > 10 µM
SMILES: Cc1ccc(-c2cc3c(cc2-c2ccc(F)cc2F)C(=O)NC3)cn1 [Compound 69, 6-(2,4-difluorophenyl)-5-(6-methylpyridin-3-yl)isoindolin-1-one]

IC50 [1]: 0.347 µM
IC50 [2]: 4.79 µM
SMILES: O=C1NCc2cc(-c3ccn(C4CC4)n3)c(-c3ccc(F)cc3F)cc21 [Compound 108, 5-(1-cyclopropyl-1H-pyrazol-3-yl)-6-(2,4-difluorophenyl)isoindolin-1-one]

IC50 [1]: 0.585 µM
IC50 [2]: > 10 µM
SMILES: Cc1ccc(C#N)cc1-c1cc2c(cc1-c1ccc(F)cc1F)C(=O)NC2 [Compound 96, 3-(6-(2,4-difluorophenyl)-1-oxoisoindolin-5-yl)-4-methylbenzonitrile]

IC50 [1]: 0.225 µM
IC50 [4]: 0.185 µM
SMILES: Cc1c(-c2cc3c(cc2-c2ccc(F)cc2F)C(=O)NC3)cc(C#N)n1C [Compound 90, 4-(6-(2,4-difluorophenyl)-1-oxoisoindolin-5-yl)-1,5-dimethyl-1H-pyrrole-2-carbonitrile]

IC50 [1]: 0.534 µM
IC50 [2]: > 10 µM
SMILES: COc1cncc(-c2cc3c(cc2-c2ccc(F)cc2F)C(=O)NC3)c1 [Compound 101, 6-(2,4-difluorophenyl)-5-(5-methoxypyridin-3-yl)isoindolin-1-one]

IC50 [2]: > 10 µM
SMILES: O=C1NCc2cc(-c3cccnc3C3CC3)c(-c3ccc(F)cc3F)cc21 [Compound 74, 5-(2-cyclopropylpyridin-3-yl)-6-(2,4-difluorophenyl)isoindolin-1-one]

IC50 [1]: > 10 µM
IC50 [4]: > 10 µM
SMILES: Cn1cc(-c2cc3c(cc2-c2ccc(F)cc2)C(=O)NC3)cn1 [Compound 1, 6-(4-fluorophenyl)-5-(1-methyl-1H-pyrazol-4-yl)isoindolin-1-one]

IC50 [1]: 0.136 µM
IC50 [2]: 2.62 µM
SMILES: Cc1cc(-c2cc3c(cc2-c2ccc(F)cc2F)C(=O)NC3)c(C#N)n1C [Compound 98, 3-(6-(2,4-difluorophenyl)-1-oxoisoindolin-5-yl)-1,5-dimethyl-1H-pyrrole-2-carbonitrile]

IC50 [1]: 0.839 µM
IC50 [2]: 5.82 µM
SMILES: Cc1ncc(-c2cc3c(cc2-c2ccc(F)cc2)C(=O)NC3)s1 [Compound 5, 6-(4-fluorophenyl)-5-(2-methylthiazol-5-yl)isoindolin-1-one]

IC50 [4]: 2.02 µM
SMILES: O=C1NCc2cc(-c3ccc(=O)n(C(F)F)c3)c(-c3ccc(F)cc3F)cc21 [Compound 135, 5-(1-(difluoromethyl)-6-oxo-1,6-dihydropyridin-3-yl)-6-(2,4-difluorophenyl)isoindolin-1-one]

IC50 [1]: 0.697 µM
IC50 [2]: > 10 µM
SMILES: Cc1cc(C#N)cc(-c2cc3c(cc2-c2ccc(F)cc2F)C(=O)NC3)c1 [Compound 91, 3-(6-(2,4-difluorophenyl)-1-oxoisoindolin-5-yl)-5-methylbenzonitrile]
